Measurements from patent publication US11890316B2, “Oral octreotide therapy and contraceptive methods” (Amryt Endo, Inc., priority 2020, dated 2024).

Columns and labels:
clinical [1] = settings: female, human, in vivo, po
clinical [2] = settings: for Cmax, least squares geometric mean, Test / Cmax, least squares geometric mean, Reference: co-administered with HCTZ and metformin, in ng/mL; for effect of oral octreotide on the exposure to the probe drug (Cmax and AUC0-5): single 40 mg oral octreotide acetate vs placebo, first 5 h after dosing
Source text: This was a single-center, randomized, single-blind, placebo-controlled, crossover design study in healthy male and female subjects.
Eligible subjects were randomized in a 1:1 ratio to one of two treatment sequences of test conditions (i.e., Group 1 or Group 2); females were studied under 4 test conditions (A to D), whereas males were studied under 2 test conditions only (A and B), as shown in Table 1.
The study comprised a screening period, 4 treatment (dosing) periods for females and 2 treatment periods for males, and a follow-up period (approximately 7-10 days following the last dosing). There was a washout period of at least 14 days between dosing events.
The effect of […] on the absorption of estradiol was assessed by comparing Test Conditions C and D in up to 14 females. Blood sampling was conducted over the first 5 hours after administration.
Confidence intervals (Cis) (90%) were constructed for the geometric mean rations (GMRs) (probe drug+oral octreotide to probe drug alone) of the 2 parameters using the natural log-transformed data and the 2 one-sided t-tests procedure. The GMRs and CIs were exponentiated back to the original scale. The effect of concurrent administration of oral octreotide was assessed from the GMRs and 90% Cis. The discrete parameter Tmax was compared among treatments using non-parametric analyses.

[3] = both, human, in vivo, po, 100 mg
[4] = both, human, in vivo, po, 850 mg
[5] = R-warfarin with oral octreotide vs R-warfarin with placebo
[6] = S-warfarin with oral octreotide vs S-warfarin with placebo

C#C[C@]1(O)CC[C@H]2[C@@H]3CCc4cc(O)ccc4[C@H]3CC[C@@]21C [Ethinyl Estradiol, ethinyl estradiol]
Cmax Geometric Mean Ratio, Estimate (clinical [1]): 92.05% | Tmax (clinical [1]): 2.75 h | AUC(0-t) (clinical [1]; 0.06 mg): 0.37 ± 0.0802 ng·h/mL | Tmax (clinical [1]; 0.06 mg): 1.79 h | Cmax (clinical [1]; 0.06 mg, Cmax): 0.113 ± 0.0287 ng/mL

NS(=O)(=O)c1cc2c(cc1Cl)NCNS2(=O)=O [Hydrochlorothiazide, hydrochlorothiazide]
AUC(0-5) Geometric Mean Ratio, Estimate (clinical [2]; both, human, in vivo, po): 81.82% | Cmax Geometric Mean Ratio, Estimate (clinical [2]; both, human, in vivo, po): 91.21% | Tmax (clinical [2]; both, human, in vivo, po): 4 h | AUC(0-t) (clinical [2]; [3]): 2030 ± 392 ng·h/mL | Tmax (clinical [2]; [3]): 2.75 h | Cmax (clinical [2]; both, human, in vivo, po, 100 mg, Cmax): 655 ± 128 ng/mL

CN(C)C(=N)N=C(N)N [Metformin, metformin]
AUC(0-t) (clinical [2]; [4]): 5500 ± 1280 ng·h/mL | Cmax (clinical [2]; [4]): 1450 ± 398 ng/mL

CC(=O)C[C@H](c1ccccc1)c1c(O)c2ccccc2oc1=O [R-Warfarin, R-warfarin]
Cmax (clinical [2]; R-warfarin in plasma, single 7.5 mg oral racemic warfarin, with single 40 mg (2x20 mg) oral octreotide acetate, healthy volunteers, mean ± SD): 508 ± 97.0 ng/mL | Cmax (clinical [2]; R-warfarin in plasma, single 7.5 mg oral racemic warfarin, without oral octreotide (placebo), healthy volunteers, mean ± SD): 498 ± 82.0 ng/mL | Cmax, least squares geometric mean, Test (clinical [2]; R-warfarin with oral octreotide 40 mg, 7.5 mg racemic warfarin): 500.10 | AUC(0-5) Geometric Mean Ratio, Estimate (clinical [2]; [5]): 105.17% | Cmax Geometric Mean Ratio, Estimate (clinical [2]; [5]): 101.84% | Cmax, least squares geometric mean, Reference (clinical [2]; R-warfarin with placebo, 7.5 mg racemic warfarin): 491.04 | AUC(0-5) (clinical [2]; R-warfarin, 7.5 mg racemic warfarin, with 40 mg oral octreotide acetate, mean ± SD): 2012 ± 348 ng·h/mL | Tmax (clinical [2]; R-warfarin, 7.5 mg racemic warfarin, with 40 mg oral octreotide acetate, median): 2.00 (18) h | AUC(0-5) (clinical [2]; R-warfarin, 7.5 mg racemic warfarin, without oral octreotide (placebo), mean ± SD): 1907 ± 280 ng·h/mL | Tmax (clinical [2]; R-warfarin, 7.5 mg racemic warfarin, without oral octreotide (placebo), median): 1.00 (18) h | effect of oral octreotide on the exposure to the probe drug (Cmax and AUC0-5) (clinical [2]; healthy volunteers): no significant effect

CC(=O)C[C@@H](c1ccccc1)c1c(O)c2ccccc2oc1=O [S-Warfarin, S-warfarin]
Cmax (clinical [2]; S-warfarin in plasma, single 7.5 mg oral racemic warfarin, with single 40 mg (2x20 mg) oral octreotide acetate, healthy volunteers, mean ± SD): 492 ± 114.2 ng/mL | Cmax (clinical [2]; S-warfarin in plasma, single 7.5 mg oral racemic warfarin, without oral octreotide (placebo), mean ± SD): 503 ± 91.2 ng/mL | Cmax, least squares geometric mean, Test (clinical [2]; S-warfarin with oral octreotide 40 mg, 7.5 mg racemic warfarin): 480.09 | AUC(0-5) Geometric Mean Ratio, Estimate (clinical [2]; [6]): 102.38% | Cmax Geometric Mean Ratio, Estimate (clinical [2]; [6]): 97.06% | Cmax, least squares geometric mean, Reference (clinical [2]; S-warfarin with placebo, 7.5 mg racemic warfarin): 494.64 | AUC(0-5) (clinical [2]; S-warfarin, 7.5 mg racemic warfarin, with 40 mg oral octreotide acetate, mean ± SD): 1894 ± 330 ng·h/mL | Tmax (clinical [2]; S-warfarin, 7.5 mg racemic warfarin, with 40 mg oral octreotide acetate, median): 1.50 (18) h | AUC(0-5) (clinical [2]; S-warfarin, 7.5 mg racemic warfarin, without oral octreotide (placebo), mean ± SD): 1846 ± 286 ng·h/mL | Tmax (clinical [2]; S-warfarin, 7.5 mg racemic warfarin, without oral octreotide (placebo), median): 1.00 (18) h | effect of oral octreotide on the exposure to the probe drug (Cmax and AUC0-5) (clinical [2]; healthy volunteers): no significant effect
